{
  "source": "patent US20250213593A1",
  "about": "“Use of Derivatives based on Sarsasapogenin Structure and Pharmaceutical Compositions thereof” (BEIJING PHYTOVENT PHARMACEUTICAL TECHNOLOGY CO., LTD., priority 2022, published 2025)",
  "key": {"[1]": {"system": "C57BL/6 mice modeled with MPTP", "assay": "PD mouse model (MPTP)", "type": "in vivo", "conditions": "80 mpk, 15 days; vs model group, T-test", "protocol": "• Experimental and analytical method: mice of C57BL/6 strain were used in this experiment, which were divided into 5 groups, including a normal control group (no injection of MPTP), a model group (modeling with MPTP), and treatment groups of three small molecules (Embodiment 13B, Embodiment 25A, and Embodiment 25B). The drug was administered at the same time as modeling was made. The modeling lasted for 5 days, followed by 30 mpk intraperitoneal injection till lasting for 15 days, and lasted for 15 days at 80 mpk. At the endpoint, the brain was soaked and fixed in PFA after cardiac perfusion, and transferred to sucrose dehydration after complete fixation, and OCT embedding and sectioning were used for TH staining after complete dehydration. The detection indicator was the number of TH-positive cells in the substantia nigra. The more positive cells, the better the protection effect of small molecules against MPTP damage. • Results: there were 12 mice in each group, and the statistical results were shown in FIG. 50, T-test, **: p<0.01, #: p<0.05."}, "SOD^G93A transgenic mice": {"system": "SOD^G93A transgenic mice", "assay": "Open field test of SOD^G93A mice", "conditions": "40 mpk from Day 60, Week 14 to Week 19; vs model group", "experimental": "A mean moving speed was calculated in an open field, which is a behavioral analysis method to test motor dysfunction. The mice with motor dysfunction would have a significant reduction in mean moving speed. Our experiments were divided into three groups, i.e., a WT group, a model group and an administration group."}, "[2]": {"system": "TDP43^A315T transgenic mice", "conditions": "40 mpk from Day 60", "text": "Our experiments were divided into two groups, i.e., a model group and an administration group."}, "[3]": {"system": "transgenic AD rat model (human APP mutant protein, SD rats)", "assay": "Water maze test of AD rats", "conditions": "administered from 7 to 13 months of age; vs model group"}, "[4]": {"system": "transgenic AD rat model (human APP mutant protein, SD rats)", "assay": "T-maze test of AD rats", "type": "in vivo", "conditions": "model vs administration group", "protocol": "The T-maze test had four stages: I. in an acclimatization stage, food was placed in both arms, and valves on both arms were opened. Each rat was trained twice. All rats entered the next stage after they had eaten the food on both sides within 5 min twice. II. In a forced training stage, a valve on one side was closed first, and the rats were allowed to eat the food on the opposite side. A valve on the opposite side was closed again, and the rats were allowed to eat the food on the other side. This was a training process. Each animal was trained 4 times a day for 3 days. III.\nIn an optional training stage, the valve on one side was closed in half first, and the rats were allowed to eat the food on the opposite side. All the valves were then closed. If the rats went to the other side, they could finish eating the food there. If the rats went to the same side, there was no food here, and they were closed on this side for 30 s. This was a training process. Each animal was trained 4 times a day until the accuracy rate exceeded 75% for 2 consecutive days and proceeded to the next stage. IV.\nIn a delayed optional test stage, it was basically the same as the operation of the III stage, except that interval time was added after the forced training stage and before the optional training stage. The interval time was set to 1.5 min, 3 min, and 10 min. Test was performed for 4 times at each time."}, "[5]": {"system": "OCI-LY3 (human diffuse large B-cell lymphoma cells)", "assay": "Cell proliferation assay, OCI-LY3", "type": "cell-based", "conditions": "Homo sapiens, OCI-Ly3, 72 h", "protocol": "(§1) • Experimental and analytical method: cells were inoculated into a 96-well cell culture plate with a lid at a maximum concentration of 10 μM for a test compound, and diluted in three folds to a series of test concentrations, and cells were incubated at 37° C., 5% CO2 for 72 h. The concentration of DMSO was 0.5%, 100 μl of medium was taken from each well. 100 μl of reagent (Celltitute Glo Assay Kit) was added to each well, and a flat plate was shaken on a plate shaker (protected from light) for 2 min. A culture plate was incubated (protected from light) at room temperature for 30 min. Chemiluminescence values were recorded by a multi-plate plate reader, and the experimental results were as follows:\n(§2) U937 (histiocytic lymphoma cells), OCI-LY3 (human diffuse large B-cell lymphoma cells), U2932 (human diffuse large B-cell lymphoma cells), and HT cells (human mixed lymphoma cells) were analyzed in the table for experimental analysis of cell proliferation."}, "[6]": {"system": "U2932 (human diffuse large B-cell lymphoma cells)", "assay": "Cell proliferation assay, U2932", "type": "cell-based", "conditions": "U2932, 72 h", "protocol": "as §1, §2"}, "[7]": {"system": "rats with ulcerative colitis induced by TNBS", "assay": "TNBS rats enteritis model", "type": "in vivo, rat", "conditions": "80 mpk oral gavage once a day, 7 days", "protocol": "All rats except the normal control group were fasted for solids (not liquids) for 24 h. After being anesthetized with isoflurane, the rats were transrectally infused with a TNBS ethanol solution (18 mg TNBS/mouse) at 0.5 mL/mouse through a latex hose, the length of the hose into the rectum was about 8 cm, an anesthesia state was continued after the hose was withdrawn, and the rats were kept in an inclined state for 15 min. The rats in the normal control group were not stimulated with rectal cannula. After the animals were awake, they were randomly divided into groups, which then began to be administrated with drugs (marked as D1). The blank group and the model group were administrated with the same amount of vehicle by oral gavage once a day for 7 consecutive days (D1-D7). The animal's status and feces (loose stools or bloody stools) were observed every day. The body weights were monitored. On the next day after the last administration (D8), the animals were deeply anesthetized with CO2, sacrificed and dissected. The entire colon tissues were harvested. The colon content was washed with normal saline after dissection along the mesenteric side. The body weights were measured and the colon lengths were measured. A ulcer surface was measured by Image J software. The general conditions of the colons were observed and photographed. Some of diseased tissues were fixed with formalin, and subjected to histopathological observation by HE staining. • Results: (1) the effects on general conditions of TNBS colitis mice were shown in FIG. 46a: the rats had loose stool on the next day of TNBS modeling; and the modeled mice had symptoms of reduced diet, tiredness, emaciation, erect hair, and dull hair. The feces of some rats were improved in the later stage of administration, but some rats still maintained loose stool until the end of the experiment, and some rats had obvious abdominal distension in the later stage of the experiment."}, "[8]": {"system": "SARS-CoV-2 pseudovirus (HEK293T cells)", "type": "cell-based"}},
  "data": [
    {"smiles": "C[C@H]1CC[C@@]2(OC1)O[C@H]1C[C@@H]3[C@H](CC[C@H]4[C@H]3CC[C@@H]3C[C@H](NC(=O)CC(=O)N5CCN(CCN(C)C)CC5)CC[C@@]34C)[C@H]1[C@@H]2C", "note": "[Embodiment 13b]", "values": [
      {"measurement": "number of TH-positive cells in the substantia nigra", "setting": "[1]", "value": "statistically significant differences"},
      {"measurement": "mean moving rate in open field", "setting": "SOD^G93A transgenic mice", "value": "much larger"},
      {"measurement": "survival time (in words)", "setting": "[2]", "value": "could effectively prolong the survival time"},
      {"measurement": "start of significant body weight decrease", "setting": "[2]; model group Week 13", "value": 16, "unit": "Week"},
      {"measurement": "death median", "setting": "[2]; model group about Day 120", "value": 135, "unit": "days"},
      {"measurement": "all died", "setting": "[2]; model group about Day 140", "value": 150, "unit": "days"},
      {"measurement": "first deaths", "setting": "[2]; model group from Day 90", "value": "> 100", "unit": "days"},
      {"measurement": "average distance from the platform", "setting": "[3]", "value": "improved behavioral performances"},
      {"measurement": "dwell time in the target quadrant", "setting": "[3]", "value": "improved behavioral performances"},
      {"measurement": "number of platform shuttles", "setting": "[3]", "value": "improved behavioral performances"},
      {"measurement": "working memory in delayed optional T-maze test", "setting": "[4]; interval 1.5 min, administered from 7 to 15 months of age", "value": "no significant difference"},
      {"measurement": "working memory in delayed optional T-maze test", "setting": "[4]; interval 3 min", "value": "no significant difference"},
      {"measurement": "working memory in delayed optional T-maze test", "setting": "[4]; interval 10 min", "value": "working memory of the administration group also persisted"},
      {"measurement": "IC50", "setting": "[5]", "value": 4390, "unit": "nM"},
      {"measurement": "IC50", "setting": "[6]", "value": 720, "unit": "nM"},
      {"measurement": "colon ulcer area", "setting": "[7]", "value": "more significant"},
      {"measurement": "colon weight per unit length (colon weight/colon length)", "setting": "[7]", "value": "more significant"},
      {"measurement": "mitochondrial fragmentation after pseudovirus infection", "setting": "[8]", "value": "not fragmented"}
    ]}
  ]
}
